Measurements from US9908899B2 (BIOMARIN PHARMACEUTICAL INC., priority 2011, dated 2018).

Legend:
[1] = test system: Frataxin (FXN) mRNA; test: Effect of HDAC inhibitors on frataxin (FXN) mRNA expression in Friedreich's ataxia patient primary lymphocytes; assay type: cell-based, human; conditions: for EC (2-fold FXN mRNA): Homo sapiens, Lymphocyte, Friedreich's ataxia patient primary lymphocytes, 48 hours, read-out: FXN 2x (concentration required for a 2-fold increase in FXN mRNA); for F × n > 2X (uM): Table 4, concentration for 2-fold increase in FXN mRNA
Method: Blood is collected from Friedreich's ataxia patient donors into tubes containing the anti-coagulant EDTA. Primary lymphocytes are isolated using Lymphocyte Separation Medium (MP Biomedicals, Solon, Ohio) following the manufacturer's instructions and including a few modifications made by Repligen. After a final wash in Phosphate Buffered Saline (PBS), the cells are distributed into a 6-well cell culture plate in cell growth medium. The test HDAC inhibitor compound is added to cells in a dose escalating manner (usually concentrations range from 1 to 10 μM) and 0.1% DMSO is added to one well of cells as a no treatment control. Cells are incubated for 48 hours at 37° C. in a CO2 incubator; cell counts are taken using a Countess automated cell counter (Invitrogen, Carlsbad, Calif.). Equivalent numbers of cells for all treatment conditions are pelleted by centrifugation and resuspended in cell lysis buffer. Total RNA is isolated from approximately 1×10^6 primary lymphocytes using a RNeasy Mini Kit (Qiagen, Valencia, Calif.), following the manufacturer's instructions and including an optional on-column DNAse digestion step. The isolation is performed either manually or using the QIAcube (Qiagen, Valencia, Calif.), an instrument that automates much of the isolation procedure. The RNA yield and concentration is determined using a Nanodrop spectrophotometer (Thermo Fisher Scientific, Waltham, Mass.) and depending on the RNA concentration, one of two protocols is used to measure frataxin (FXN) transcript levels. For samples containing at least 15 ng/μL RNA a TaqMan® Probe-based (Applied Biosystems, Carlsbad, Calif.) qRT-PCR method is used, while for samples containing less than 15 ng/μL RNA a SYBR Green qRT-PCR method is used. In the TaqMan® Probe-based method specific primer/probe pairs for FXN and GAPDH are multiplexed in each reaction. In the SYBR Green method FXN and GAPDH are amplified in separate reactions. In both methods each RNA sample is analyzed in triplicate (preferably) or duplicate (minimally) using a one-step qRT-PCR master mix that contains all the components necessary for cDNA synthesis and PCR amplification in a single, continuous reaction. After cycling is complete, MxPro Software (Agilent Technologies, Santa Clara, Calif.) is used to analyze the collected data and determine the relative amount of FXN mRNA compared to a control sample. An adaptive baseline method is used for baseline correction whereby an algorithm automatically selects the appropriate baseline cycles for each well and each dye. An amplification-based threshold is set and the corresponding threshold cycle, or Ct, is obtained for calculating target concentration. The Ct values for each target gene (FXN and GAPDH) for each replicate series are averaged. The amount of FXN (or GAPDH) in the sample is determined as the relative quantity to the calibrator where the calibrator sample is assigned an arbitrary quantity of 1. The following equation is used: Relative quantity to the calibrator=2^−ΔCt where ΔCt=(Ct_gene)unknown−(Ct_gene)calibrator, gene is either FXN or GAPDH, calibrator is a DMSO control sample, and unknown is a HDACi treated sample. The relative quantity of FXN is normalized to cell number and RNA input. Data is reported in Tables 2 and 4 below, where the concentration required for a 2-fold increase in FXN mRNA is reported as A if less than 5 μM, B if between 5 and 10 μM, C if greater than 10 μM.

[2] = target: HDAC3/NcoR2 (Homo sapiens (Human), UniProt O15379); test: HDAC activity inhibition assay, HDAC3/NcoR2; assay type: biochemical
Method: (§1) The HDAC activity inhibition assay was performed as follows to determine the ability of a test compound to inhibit HDAC enzymatic activity. […] Following pre-incubation, Fluor-de-Lys™ substrate (Enzo Life Sciences, Plymouth Meeting, Pa., BML-KI104-0050) was added to a final concentration of 10 μM and plates were further incubated for 30 minutes at room temperature. […] IC50 values were calculated by using a sigmoidal dose-response (variable slope) equation in GraphPad Prism® 5 for Windows (GraphPad Software, La Jolla, Calif.).

[3] = target: HDAC2 (Homo sapiens (Human), UniProt Q92769); test: HDAC activity inhibition assay, HDAC2; assay type: biochemical
Method: as §1

[4] = target: HDAC1 (Homo sapiens (Human), UniProt Q13547); test: HDAC activity inhibition assay, HDAC1; assay type: biochemical
Method: as §1

[5] = Acid stability determination; assay type: physicochemical; conditions: 100 μM in 0.01 M HCl, 50° C.
Method: A 100 μM solution of test compound was prepared by dilution of a 10 mM DMSO stock solution in a 0.01 M solution of HCl in deionized water. Immediately after mixing, an aliquot (100 μL) was sampled and analyzed by HPLC/UV. The area under the compound peak was determined and used as the time zero reference point. The remainder of the acid sample was incubated at 50° C. and samples were taken after 2, 4, and 24 hours of incubation. On a few occasions, samples were taken at 30 rather than 24 hours. These were analyzed by the same HPLC/UV method and the area of the peak corresponding to the test compound was measured. Percent remaining at a given time point was then calculated as the ratio of the area under the peak after incubation to that at time zero times 100. In those cases where a 30 hour time point was recorded, the percent remaining at 24 hours was obtained by interpolation of the percent remaining versus time curve assuming a unimolecular process, i.e. a monoexponential decay. Percent remaining after 24 hours incubation are presented in Tables 2 and 4 below, where A corresponds to more than 60%, B is between 40 and 60%, C covers 20 to 40% and D means less than 20%.

[6] = test system: Human Hepatocytes; test: Compound stability in hepatocytes; conditions: 5 μM
Method: To assess the stability and metabolism of RGFP compounds in hepatocytes. This assay was designed to evaluate the metabolism of RGFP compounds, following their incubation with human, monkey, dog and rat hepatocytes by monitoring either parent drug disappearance or metabolite appearance using HPLC.
Procedure: • Turn on the water-bath heater to 37° C. • Take out the KHB buffer and make sure it is at room temp before use • Prepare 2.5 mM concentration of RGFP compound in DMSO stock • Add 10 μL of above DMSO stock to 2490 μL KHB buffer; final concentration of RGFP compound will be 10 μM • Pre-warm 45 ml InVitro HT Medium to 37° C. in a sterile 50 ml conical tube • Add 1.0 mL Torpedo Antibiotic Mix per 45 mL InVitro HT medium • Transfer 13 mL of warm HT medium with Antibiotic Mix into a 15 mL conical tube. • Carefully remove the hepatocyte vials from liquid nitrogen (liquid phase). • Immediately immerse the vial into a 37° C. water bath. Shake gently until the ice melts entirely. […] Loosen the cell pellet by gently swirling the centrifuge tube • Transfer 100 μL of above solution to a different tube and add 900 μL of KHB buffer to count the cells • Determine the total cell count and the number of viable cells using the Trypan Blue exclusion method • Once you obtain the cell count, multiply the number by 10 (attributing to the dilution factor) • Now add required volume of KHB buffer to the tube containing hepatocytes such that the final count will be 2 million cells/mL • Dispense 50 μL of 2 million cells/ml to a 96 well plate and then add 50 μl of DMSO stock to respective wells (such that, the concentration of RGFP compounds is 5 μM and number of cells are 100000 in each well) • Place the plates on a shaker in a 37° C. incubator with 5% CO2 • Separate plates for each time point are advisable (Time points: 0 h, 1 h, 2 h, and 6 h) • After each time point, add 100 μL of quenching solution. • Quenching solution is an acetonitrile solution containing RGFP531 (10 μM) internal standard, 0.1% formic acid and phenylglyoxol (400 μM). The formic acid and phenylglyoxal is used for the identification and quantification of OPD as mentioned above. • Pipette up and down a few times to ensure a complete stop of reaction • Transfer all the solution into a 1.5 ml tube, vortex thoroughly, and centrifuge at 14000 RPM at 4° C. for 5 minutes to precipitate cell debris
Transfer the 150 μL of supernatant to vials for analysis using HPLC

[7] = Brain penetration studies; conditions: Table 4; mice; Cmax(brain)/Cmax(plasma)
Method: Test compounds were prepared at either 0.5 mg/ml or 5 mg/ml in 30% hydroxypropyl-β-cyclodextrin, 100 mM sodium acetate pH 5.5, 5% DMSO. C57/BL6/J mice were dosed s.c. at 5 mg/kg or 50 mg/kg, or i.v. at 5 mg/kg. Animals were euthanized at pre-dose, 5, 15, 30 min, 1, 2 and 4 hours post-dose and plasma and brain obtained. Three animals per dose per time points were used. The levels of compound in the plasma and brain were determined by standard LC/MS/MS methods. Brain/plasma ratio (BPR) was calculated as the ratio of the Cmax(brain)/Cmax(plasma).

[8] = Table 1, 2 hours pre-incubation

Chain of HDAC2 (Q92769 whole entry): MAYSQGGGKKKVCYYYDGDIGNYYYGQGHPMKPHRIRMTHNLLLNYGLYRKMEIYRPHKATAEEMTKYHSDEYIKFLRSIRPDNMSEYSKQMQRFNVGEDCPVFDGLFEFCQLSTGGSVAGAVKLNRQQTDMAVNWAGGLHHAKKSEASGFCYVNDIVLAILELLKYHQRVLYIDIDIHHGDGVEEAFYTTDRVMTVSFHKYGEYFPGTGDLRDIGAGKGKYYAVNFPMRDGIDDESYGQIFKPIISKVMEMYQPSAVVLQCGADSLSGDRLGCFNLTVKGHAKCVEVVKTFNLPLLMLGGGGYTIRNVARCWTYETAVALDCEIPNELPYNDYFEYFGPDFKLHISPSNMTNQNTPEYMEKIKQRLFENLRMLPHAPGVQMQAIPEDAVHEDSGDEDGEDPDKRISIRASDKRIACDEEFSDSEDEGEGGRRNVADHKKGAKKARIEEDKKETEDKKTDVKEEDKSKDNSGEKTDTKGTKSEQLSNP
Chain of HDAC1 (Q13547 whole entry): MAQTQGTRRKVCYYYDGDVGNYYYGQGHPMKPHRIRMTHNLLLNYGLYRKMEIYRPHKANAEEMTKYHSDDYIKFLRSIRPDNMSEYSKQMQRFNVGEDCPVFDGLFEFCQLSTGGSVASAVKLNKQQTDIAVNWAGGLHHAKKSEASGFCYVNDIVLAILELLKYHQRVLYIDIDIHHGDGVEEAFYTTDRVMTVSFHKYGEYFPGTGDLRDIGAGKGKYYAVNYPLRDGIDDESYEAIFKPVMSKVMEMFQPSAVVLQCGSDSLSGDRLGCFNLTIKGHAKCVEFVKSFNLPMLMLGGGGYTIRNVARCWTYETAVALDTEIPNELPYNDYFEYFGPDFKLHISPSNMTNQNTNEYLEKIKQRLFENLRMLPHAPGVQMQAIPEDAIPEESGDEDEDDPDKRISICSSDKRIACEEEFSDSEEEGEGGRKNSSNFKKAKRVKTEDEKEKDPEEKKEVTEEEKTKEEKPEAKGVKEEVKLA
Chain of HDAC3/NcoR2 (O15379 whole entry): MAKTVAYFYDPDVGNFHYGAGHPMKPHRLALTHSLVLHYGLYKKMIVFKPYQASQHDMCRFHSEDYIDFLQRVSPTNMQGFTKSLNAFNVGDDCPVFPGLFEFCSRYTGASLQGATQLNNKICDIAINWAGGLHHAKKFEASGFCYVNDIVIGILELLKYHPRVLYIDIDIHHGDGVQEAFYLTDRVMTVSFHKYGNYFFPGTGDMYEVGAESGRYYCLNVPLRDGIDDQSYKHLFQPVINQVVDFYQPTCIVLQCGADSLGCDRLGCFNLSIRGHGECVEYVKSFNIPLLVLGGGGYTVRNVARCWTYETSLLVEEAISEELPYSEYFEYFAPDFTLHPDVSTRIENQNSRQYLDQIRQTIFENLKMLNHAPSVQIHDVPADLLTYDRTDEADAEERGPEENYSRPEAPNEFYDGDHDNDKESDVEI
Chain of HDAC3/NcoR2 (Q9Y618 395-489 partner): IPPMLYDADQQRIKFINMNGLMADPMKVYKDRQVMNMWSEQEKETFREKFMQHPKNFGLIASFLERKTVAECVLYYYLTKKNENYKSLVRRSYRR

| Compound | IC50 [2, 8] | IC50 [3, 8] | IC50 [4, 8] | acid stability (percent remaining after 24 hours incubation) [5] | IC50 ([2]; Table 4) | IC50 ([3]; Table 4) | % left 6 h Hum [6] | IC50 ([4]; Table 4) | BPR [7] | EC (2-fold FXN mRNA) [1] | F × n > 2X (uM) [1] |
| --- | --- | --- | --- | --- | --- | --- | --- | --- | --- | --- | --- |
| Nc1ccccc1NC(=O)/C=C/c1cnn(CCCc2ccccc2)c1 [D8] | < 1 µM | < 1 µM | < 1 µM | – | – | – | – | – | – | > 10 µM | – |
| Nc1ccccc1NC(=O)/C=C/c1cnn(Cc2ccccc2)c1 [D4] | < 1 µM | 1 to 5 µM | < 1 µM | A (A corresponds to more than 60%) | – | – | – | – | – | > 10 µM | – |
| Nc1ccccc1NC(=O)/C=C/c1cnn(CC(F)(F)c2ccccc2)c1 [D10] | < 1 µM | 1 to 5 µM | < 1 µM | – | – | – | – | – | – | > 10 µM | – |
| Cc1cccc(Cn2cc(/C=C/C(=O)Nc3ccccc3N)cn2)n1 [D6] | – | 1 to 5 µM | 1 to 5 µM | – | – | – | – | – | – | > 10 µM | – |
| Nc1ccccc1NC(=O)c1ccc(C=C2CN(CC3CC3)C2)c(Cl)c1 [F10] | – | – | – | – | – | – | B (50%>B>30%) | – | A (A is greater than 1) | – | – |
| Nc1ccccc1NC(=O)c1ccc(C=C2COC2)c(Cl)c1 [F11] | – | – | – | – | < 1 µM | – | C (30%>C>10%) | < 1 µM | A (A is greater than 1) | – | – |
| Nc1ccccc1NC(=O)/C=C/c1cnn(CCOCc2ccccc2)c1 [D14] | < 1 µM | < 1 µM | < 1 µM | B (B is between 40 and 60%) | – | – | – | – | – | 5 to 10 µM | – |
| Nc1ccccc1NC(=O)/C=C/c1cnn(CCc2ccccc2)c1 [D7] | < 1 µM | 1 to 5 µM | < 1 µM | B (B is between 40 and 60%) | – | – | – | – | – | 5 to 10 µM | – |
| CN1C2CCC1CC(=Cc1ccc(C(=O)Nc3ccccc3N)cc1Cl)C2 [F8] | – | – | – | – | < 1 µM | < 1 µM | – | < 1 µM | C (C is 0.2 to 0.5) | – | – |
| Nc1ccccc1NC(=O)/C=C/c1cnn(CCCCc2ccccc2)c1 [D9] | < 1 µM | < 1 µM | < 1 µM | A (A corresponds to more than 60%) | – | – | – | – | – | < 5 µM | – |
| Nc1ccccc1NC(=O)/C=C/c1cnn(CC/C=C/c2ccccc2)c1 [D11] | < 1 µM | < 1 µM | < 1 µM | – | – | – | – | – | – | 5 to 10 µM | – |
| Nc1ccccc1NC(=O)/C=C/c1cnn(CCOc2ccccc2)c1 [D3, (E)-N-(2-aminophenyl)-3-(1-(2-phenoxyethyl)-1H-pyrazol-4-yl)acrylamide] | < 1 µM | < 1 µM | < 1 µM | A (A corresponds to more than 60%) | – | – | – | – | – | 5 to 10 µM | – |

Now from value to molecule, other results behind:

| IC50 [2, 8] | IC50 [3, 8] | IC50 [4, 8] | acid stability (percent remaining after 24 hours incubation) [5] | IC50 ([2]; Table 4) | IC50 ([3]; Table 4) | % left 6 h Hum [6] | IC50 ([4]; Table 4) | BPR [7] | Compound | EC (2-fold FXN mRNA) [1] | F × n > 2X (uM) [1] |
| --- | --- | --- | --- | --- | --- | --- | --- | --- | --- | --- | --- |
| < 1 µM | – | < 1 µM | B (B is between 40 and 60%) | – | – | – | – | – | Nc1ccccc1NC(=O)c1ccc(CC2CN(Cc3ccc4cc[nH]c4c3)C2)cc1 [F4] | < 5 µM | – |
| – | – | – | – | < 1 µM | < 1 µM | A (50%<A) | < 1 µM | A (A is greater than 1) | Nc1ccccc1NC(=O)c1ccc(C=C2CN(CC3CC3)C2)cc1 [F12] | – | A (A if less than 5 μM) |
| – | – | – | – | < 1 µM | 1 to 5 µM | A (50%<A) | 1 to 5 µM | – | Nc1cc(F)ccc1NC(=O)c1ccc(C=C2CN(CC3CC3)C2)cc1 [F20] | – | – |
| – | – | – | – | < 1 µM | < 1 µM | C (30%>C>10%) | < 1 µM | – | Nc1ccccc1NC(=O)c1ccc(C=C2CN(Cc3ccccc3)C2)cc1 [F17] | – | – |
| – | – | – | – | < 1 µM | < 1 µM | C (30%>C>10%) | < 1 µM | – | Cc1cccc(CN2CC(=Cc3ccc(C(=O)Nc4ccccc4N)cc3)C2)n1 [F16] | – | – |
| – | – | – | – | < 1 µM | 1 to 5 µM | A (50%<A) | < 1 µM | – | CC(C)(O)CN1CC(=Cc2ccc(C(=O)Nc3ccccc3N)cc2)C1 [F19] | – | – |
| – | – | – | – | < 1 µM | < 1 µM | B (50%>B>30%) | < 1 µM | A (A is greater than 1) | Nc1ccccc1NC(=O)c1ccc(C=C2CCN(CC3CC3)CC2)cc1 [F13] | – | – |
| < 1 µM | < 1 µM | < 1 µM | B (B is between 40 and 60%) | – | – | – | – | – | Nc1ccccc1NC(=O)c1ccc(C=C2CCN(Cc3cccnc3)CC2)cc1 [F2] | < 5 µM | – |
| – | – | – | – | < 1 µM | < 1 µM | A (50%<A) | < 1 µM | A (A is greater than 1) | CC(C)(O)CN1CCC(=Cc2ccc(C(=O)Nc3ccccc3N)cc2)CC1 [F15] | – | A (A if less than 5 μM) |
| < 1 µM | < 1 µM | < 1 µM | – | < 1 µM | < 1 µM | C (30%>C>10%) | < 1 µM | – | Nc1ccccc1NC(=O)c1ccc(C=C2CCN(Cc3cccnc3)CC2)c(Cl)c1 [F7] | – | – |
| – | – | – | – | < 1 µM | < 1 µM | C (30%>C>10%) | < 1 µM | – | Nc1ccccc1NC(=O)c1ccc(C=C2CN(Cc3cccnc3)C2)cc1 [F18] | – | – |
| – | – | – | – | < 1 µM | < 1 µM | C (30%>C>10%) | < 1 µM | A (A is greater than 1) | CC(C)(C)CN1CCC(=Cc2ccc(C(=O)Nc3ccccc3N)cc2)CC1 [F14] | – | A (A if less than 5 μM) |
| < 1 µM | < 1 µM | < 1 µM | B (B is between 40 and 60%) | – | – | – | – | – | Nc1ccccc1NC(=O)c1ccc(C=C2CN(Cc3ccc4cc[nH]c4c3)C2)cc1 [F3] | < 5 µM | – |
| – | – | – | – | < 1 µM | – | IA (IA<10%) | < 1 µM | – | Nc1ccccc1NC(=O)c1ccc(C=C2COC2)cc1F [F9] | – | – |
